{"source": "patent EP0198172A1", "about": "“Pharmaceutical preparation” (HERMES Fabrik pharmazeutischer Präparate Franz Gradinger …, priority 1985, dated 1986)", "test_system": "Patienten", "assay": "Double-blind crossover clinical study, impedance cardiography (I.C.) in six patients", "type": "in vivo, Menschen", "text": "Im folgenden werden klinische Versuche am Menschen beschrieben, die die Wirkungen der erfindungsgemäßen pharmazeutischen Zubereitung zeigen: • Tabelle 1 zeigt in schematischer Darstellung eine Doppel-Blind-Studie mit der erfindungsgemäßen pharmazeutischen Zubereitung.\nDabei bedeutet \"I.C.\"Impedanz Cardiographie.\nZur Durchführung der Impedanz Cardiographie wird insbesondere verwiesen auf \"Biomedical and clinical aspects for coenzyme Q, Volume 1 (1977) Volume 2 (1980), Volume 3 (1981), Volume 4 (1984), Elsevier/North-Holland Biomedical Press, Amsterdam-New York-Oxford\" und auf Lee E. Baker (ebenda, Vol. 2,.Seite 289) und schließlich W.G. Kubicek, Aerospace Med. 37 (12), 1208, 1966.\nDie Wirkungen der erfindungsgemäßen pharmazeutischen Zubereitung auf das Herz-Schlag-Volumen (SV), das Herz-Zeit-Volumen (CO) und den Heather Index (HI) von sechs Patienten wurden ermittelt und in der folgenden Tabelle 2 zusammengestellt.\nDen sechs Patienten wurden gemäß Tabelle II gegeben: • CoQ10 : 3 x 33 mg = 99 mg täglich • Placebo : Oleum arachidis Vol.(eine Kapsel 0,5 ml) • CoQ10 + Vitamin E : (3 x 33 mg) + (3 x 100 mg) zusammen in 3 Kapseln täglich gelöst in Oleum arachidis • Vitamin E : 3 x 100 mg täglich (= 3 Kapseln . täglich). [formula]", "key": {"[1]": {"conditions": "oral capsules daily, impedance cardiography, result in words"}}}
{"smiles": "COC1=C(OC)C(=O)C(C/C=C(\\C)CC/C=C(\\C)CC/C=C(\\C)CC/C=C(\\C)CC/C=C(\\C)CC/C=C(\\C)CC/C=C(\\C)CC/C=C(\\C)CC/C=C(\\C)CCC=C(C)C)=C(C)C1=O", "note": "[CoQ10, 2.3-Dimethoxy-5-methyl-1.4-benzochinon mit einer isoprenoiden Seitenkette, mit 10 Dihydroisopren-Einheiten]", "values": [{"measurement": "Steigerung des Herzminutenvolumens (CO)", "setting": "oral capsules daily (CoQ10 3 x 33 mg; combination 3 x 33 mg + 3 x 100 mg Vitamin E), versus controls, placebo and Vitamin E alone", "result": "~20", "unit": "%"}, {"measurement": "Heather Index (HI)", "setting": "[1]", "result": "Ähnliches gilt"}, {"measurement": "Schlagvolumen (SV)", "setting": "[1]", "result": "Ähnliches gilt"}]}
